The test system of this assay is P388 leukemia ip, CD2F1 mice, survival T/C. The assay is described as follows: NCI In Vivo Anticancer Drug Screen. Data for tumor model P388 Leukemia (intraperitoneal) in CD2F1 (CDF1) mice. As to conditions: endpoint: median survival time, higher = longer survival. An outline of the steps: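 Mice carrying the transplanted tumor received test compound or vehicle. Survival was recorded in each group, and the value is the treated-group measurement divided by that of the vehicle-treated control group.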

[1] abbreviates: dose: 50.0 mg/kg/injection, schedule: Q04DX003 (ip), vehicle: saline with Tween-80.
[2] abbreviates: dose: 60.0 mg/kg/injection, schedule: Q01DX005 (ip), vehicle: saline with Tween-80.
Setting [3] is: dose: 120.0 mg/kg/injection, schedule: Q01DX005 (ip), vehicle: saline with Tween-80.
The mark [4] stands for this setting: dose: 240.0 mg/kg/injection, schedule: Q01DX005 (ip), vehicle: saline with Tween-80.
[5] abbreviates: dose: 50.0 mg/kg/injection, schedule: Q01DX005 (ip), vehicle: Klucel (hydroxypropylcellulose) (HPC).
The mark [6] stands for this setting: dose: 100.0 mg/kg/injection, schedule: Q01DX005 (ip), vehicle: Klucel (hydroxypropylcellulose) (HPC).

Values joined by “and” are separate entries in the source; they are usually repeats but may differ in a detail not shown here. Identical values can stand only once. Toxic doses and inconclusive results are not listed.

Consider 18 compounds from PubChem BioAssay AID330 (DTP/NCI, 2004).

Take `C=C=COC`: the T/C was 93 % of control (dose: 60.0 mg/kg/injection, schedule: Q01DX005 (ip), vehicle: saline); 95 % of control (dose: 120.0 mg/kg/injection, schedule: Q01DX005 (ip), vehicle: saline); 95 % of control (dose: 240.0 mg/kg/injection, schedule: Q01DX005 (ip), vehicle: saline).
For `Cc1cc2c(c3oc(C4(C)OC4C4OC4C)cc(=O)c13)C(=O)c1c(O)c(C3CC(C)(N(C)C)C(O)C(C)O3)cc(C3CC(N(C)C)C(O)C(C)O3)c1C2=O` (stereo not given), the T/C is 150 % of control (dose: 0.02 mg/kg/injection, schedule: Q01DX005 (ip), vehicle: saline); 122 % of control (dose: 0.02 mg/kg/injection, schedule: Q03HX008 (ip), vehicle: saline); 113 % of control (dose: 0.02 mg/kg/injection, schedule: Q03HX016 (ip), vehicle: saline); 95 % of control (dose: 0.03 mg/kg/injection, schedule: Q01DX009 (ip), vehicle: saline); 118 % of control (dose: 0.03 mg/kg/injection, schedule: Q03HX008 (ip), vehicle: saline); 109 % of control (dose: 0.03 mg/kg/injection, schedule: Q03HX016 (ip), vehicle: saline). Also, the T/C by setting is: (dose: 0.03 mg/kg/injection, schedule: Q04DX003 (ip), vehicle: saline) 150 % of control; (dose: 0.06 mg/kg/injection, schedule: Q01DX005 (ip), vehicle: saline) 100 % of control; (dose: 0.06 mg/kg/injection, schedule: Q01DX009 (ip), vehicle: saline) 104 % of control; (dose: 0.06 mg/kg/injection, schedule: Q03HX008 (ip), vehicle: saline) 122 % of control; (dose: 0.06 mg/kg/injection, schedule: Q04DX003 (ip), vehicle: saline) 150 % of control; (dose: 0.06 mg/kg/injection, schedule: Q08DX002 (ip), vehicle: saline) 150 % of control. For the same compound, the T/C (dose: 0.12 mg/kg/injection, schedule: Q01DX001 (ip), vehicle: saline) was 150 % of control; the T/C (dose: 0.12 mg/kg/injection, schedule: Q03HX016 (ip), vehicle: saline) was 113 % of control; the T/C (dose: 6.25 micrograms/kg/injection, schedule: Q01DX009 (ip), vehicle: saline) was 123 % of control; the T/C (dose: 10.0 micrograms/kg/injection, schedule: Q01DX009 (ip), vehicle: water) is 99 % of control; the T/C (dose: 12.5 micrograms/kg/injection, schedule: Q01DX009 (ip), vehicle: saline) is 101 % of control.
For `O=C1SC2(CCCCC2)SC1=O`, the T/C runs as follows: under setting [1], 109 % of control; (dose: 100.0 mg/kg/injection, schedule: Q04DX003 (ip), vehicle: saline with Tween-80) 104 % of control; (dose: 200.0 mg/kg/injection, schedule: Q04DX003 (ip), vehicle: saline with Tween-80) 104 % of control.
As for `O=C(O)c1nc2ccccc2c2ncccc12`, the T/C by setting is: (dose: 25.0 mg/kg/injection, schedule: Q04DX002 (ip), vehicle: saline with Tween-80) 101 % of control; (dose: 50.0 mg/kg/injection, schedule: Q04DX002 (ip), vehicle: saline with Tween-80) 92 % of control; (dose: 100.0 mg/kg/injection, schedule: Q04DX002 (ip), vehicle: saline with Tween-80) 94 % of control.
On to `CCCCCCCCCCCCCCCCC[N+]1(CC)CCCCC1`, for which the T/C runs as follows: (dose: 0.39 mg/kg/injection, schedule: Q01DX009 (ip), vehicle: saline) 111 % of control; (dose: 0.78 mg/kg/injection, schedule: Q01DX009 (ip), vehicle: saline) 116 % of control.
In the case of `O=C1c2ccc3ccccc3c2CN2C(=O)CCC12` (stereo not given), the T/C under setting [2] was 105 % of control, the T/C under setting [3] was 103 % of control and the T/C under setting [4] was 104 % of control.
Take `Cc1cc(OCCCC[N+](C)(C)Cc2ccc(Br)o2)c(C(C)C)cc1Cl`: the T/C is, setting by setting: (dose: 1.56 mg/kg/injection, schedule: Q01DX009 (ip), vehicle: saline) 91 % of control; (dose: 3.13 mg/kg/injection, schedule: Q01DX009 (ip), vehicle: saline) 100 % of control; (dose: 6.25 mg/kg/injection, schedule: Q01DX009 (ip), vehicle: saline) 103 % of control and 105 % of control.
For `Oc1c(Cl)cc(Cl)cc1C1CC(c2ccccc2Cl)=NN1c1ccccc1` (stereo not given), the T/C by setting is: (dose: 50.0 mg/kg/injection, schedule: Q01DX009 (ip), vehicle: saline with Tween-80) 96 % of control; (dose: 100.0 mg/kg/injection, schedule: Q01DX009 (ip), vehicle: saline with Tween-80) 95 % of control; (dose: 200.0 mg/kg/injection, schedule: Q01DX009 (ip), vehicle: saline with Tween-80) 97 % of control.
Take `Cc1cc(N(CCCl)CCCl)c(C)cc1NC(=O)c1ccccc1`: the T/C (dose: 16.5 mg/kg/injection, schedule: Q04DX003 (ip), vehicle: saline with Tween-80) was 159 % of control; the T/C (dose: 25.0 mg/kg/injection, schedule: Q04DX003 (ip), vehicle: saline with Tween-80) was 177 % of control; the T/C (dose: 37.5 mg/kg/injection, schedule: Q04DX003 (ip), vehicle: saline with Tween-80) was 90 % of control; the T/C under setting [1] is 90 % of control.
Consider `CCOc1cc(C)c(CC2NC(=O)NC2=O)cc1C(C)C` (stereo not given), for which the T/C (dose: 100.0 mg/kg/injection, schedule: Q04DX003 (ip), vehicle: suspension in saline) was 100 % of control; the T/C (dose: 200.0 mg/kg/injection, schedule: Q04DX003 (ip), vehicle: suspension in saline) was 100 % of control; the T/C (dose: 400.0 mg/kg/injection, schedule: Q04DX003 (ip), vehicle: suspension in saline) was 88 % of control.
For the compound `Nc1ccc(-c2cc3ccc(C4=NCCN4)cc3[nH]2)cc1`, the T/C (dose: 60.0 mg/kg/injection, schedule: Q01DX005 (ip), vehicle: Klucel (hydroxypropylcellulose) (HPC)) is 117 % of control.
Take `COc1ccc2c(C)cc(NNC(N)=S)nc2c1`: the T/C under setting [5] was 104 % of control and 107 % of control; the T/C under setting [6] is 111 % of control and 120 % of control.
Regarding `C#CCOc1ccccc1/C(Cl)=N/Nc1ccc([N+](=O)[O-])cc1[N+](=O)[O-]`, the T/C runs as follows: (dose: 6.25 mg/kg/injection, schedule: Q01DX009 (ip), vehicle: saline with Tween-80) 97 % of control; (dose: 25.0 mg/kg/injection, schedule: Q01DX009 (ip), vehicle: saline with Tween-80) 90 % of control.
As to `C=C1CC/C=C(/C)C(=O)C(OC(C)=O)C2C1CC2(C)C` (stereo not given), the T/C (dose: 1.75 mg/kg/injection, schedule: Q01DX009 (ip), vehicle: saline + Tween-80 + alcohol) is 105 % of control; the T/C (dose: 1.75 mg/kg/injection, schedule: Q01DX009 (ip), vehicle: saline + alcohol) was 105 % of control and 111 % of control; the T/C (dose: 3.5 mg/kg/injection, schedule: Q01DX009 (ip), vehicle: saline + Tween-80 + alcohol) was 102 % of control; the T/C (dose: 3.5 mg/kg/injection, schedule: Q01DX009 (ip), vehicle: saline + alcohol) is 102 % of control and 103 % of control and 114 % of control; the T/C (dose: 7.0 mg/kg/injection, schedule: Q01DX009 (ip), vehicle: saline + Tween-80 + alcohol) was 111 % of control; the T/C (dose: 7.0 mg/kg/injection, schedule: Q01DX009 (ip), vehicle: saline + alcohol) is 101 % of control and 105 % of control and 114 % of control. The T/C is 116 % of control (dose: 14.0 mg/kg/injection, schedule: Q01DX009 (ip), vehicle: saline + Tween-80 + alcohol); 111 % of control and 113 % of control and 114 % of control (dose: 14.0 mg/kg/injection, schedule: Q01DX009 (ip), vehicle: saline + alcohol); 120 % of control (dose: 28.0 mg/kg/injection, schedule: Q01DX009 (ip), vehicle: saline + Tween-80 + alcohol); 111 % of control and 115 % of control and 121 % of control (dose: 28.0 mg/kg/injection, schedule: Q01DX009 (ip), vehicle: saline + alcohol); 116 % of control (dose: 56.0 mg/kg/injection, schedule: Q01DX009 (ip), vehicle: saline + Tween-80 + alcohol).
Take `CNCC(=O)Nc1ccc(C2NC(=O)Cc3ccccc32)cc1` (stereo not given): the T/C was 104 % of control (dose: 100.0 mg/kg/injection, schedule: Q04DX002 (ip), vehicle: saline) and 111 % of control (dose: 200.0 mg/kg/injection, schedule: Q04DX002 (ip), vehicle: saline).
Turning to `O=C(Nc1ccc(Cl)c(Cl)c1)Oc1ccccc1Cl`, the T/C is, setting by setting: under setting [2], 106 % of control; under setting [3], 107 % of control; under setting [4], 105 % of control.
With `CCOC(=O)C1=C(O)C(C)(c2ccc(O)cc2O)N=C1c1ccccc1` (stereo not given), the T/C reads like this: under setting [5], 95 % of control; under setting [6], 96 % of control; (dose: 200.0 mg/kg/injection, schedule: Q01DX005 (ip), vehicle: Klucel (hydroxypropylcellulose) (HPC)) 89 % of control.
Take `CC(=O)OC[C@]12CCC(C)=CC1O[C@@H]1C(OC(C)=O)[C@@H](O)[C@@]2(C)[C@]12CO2` (stereo not given in full): the T/C was 116 % of control (dose: 0.5 mg/kg/injection, schedule: Q01DX009 (ip), vehicle: saline) and 165 % of control (dose: 4.0 mg/kg/injection, schedule: Q01DX009 (ip), vehicle: saline).
